Laboratory results reported in US20060069132A1, “Azolecarboxamide herbicides” (priority 2004, published 2006).

Tests used:
giant foxtail [1] = assay: Test B pre-/postemergence herbicide test; type: in vivo, Setaria faberi
In short: (§1)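 Greenhouse pot assay with simultaneous preemergence (treated seed) and postemergence (2–18 cm seedlings) applications of surfactant-containing, non-phytotoxic solvent formulations. Response scored visually 13–15 days later on a 0–100 scale, 100 meaning complete control.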

velvetleaf [2] = assay: Test A pre-/postemergence herbicide test; type: in vivo, Abutilon theophrasti
In short: (§2)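 Both application timings were run together: directed soil spray over freshly planted seeds in sandy loam, and runoff spray onto 2–10 cm seedlings. Evaluation after ~10 days in greenhouse used a 0–100 visual scale versus untreated controls.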

redroot pigweed = assay: Test A pre-/postemergence herbicide test; type: in vivo, Amaranthus retroflexus
In short: as §2

velvetleaf [3] = assay: Test B pre-/postemergence herbicide test; type: in vivo, Abutilon theophrasti
In short: as §1

large crabgrass [4] = assay: Test A pre-/postemergence herbicide test; type: in vivo, Digitaria sanguinalis
In short: as §2

blackgrass = assay: Test B postemergence herbicide test; type: in vivo, Alopecurus myosuroides; details: scale 0 (no effect) to 100 (complete control)
In short: (§3)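 Formulated test chemicals went onto postemergence plants measuring 2 to 18 cm, at one to four leaves. For the paddy assay, species had reached two leaves. Scoring took place 13–15 days later by eye, relative to untreated plants, using 0 for no effect up to 100 for full control.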

wild oat = assay: Test B postemergence herbicide test; type: in vivo, Avena fatua; details: scale 0 (no effect) to 100 (complete control)
In short: (§4)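 Plants grow to 1- to 4-leaf stage (2–18 cm) for postemergence spraying, or to 2-leaf stage for the paddy test. Formulated compound is applied. Greenhouse holding lasts 13–15 days. Response is scored visually relative to controls, 0 no effect to 100 complete control; a dash means no result.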

morningglory [5] = assay: Test A pre-/postemergence herbicide test; type: in vivo, Ipomoea spp.
In short: as §2

cocklebur = assay: Test B pre-/postemergence herbicide test; type: in vivo, Xanthium strumarium
In short: (§5)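 Plants compared with untreated controls 13–15 days post-treatment and given a visual 0–100 injury score. Applications: preemergence to seeds; postemergence at 1- to 4-leaf (2–18 cm); paddy species flooded, 2-leaf stage. Vehicle non-phytotoxic, surfactant included.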

morningglory [6] = assay: Test B pre-/postemergence herbicide test; type: in vivo, Ipomoea coccinea
In short: as §5

corn = assay: Test B pre-/postemergence herbicide test; type: in vivo, Zea mays
In short: as §1

lambsquarters = assay: Test B pre-/postemergence herbicide test; type: in vivo, Chenopodium album
In short: as §1

rice [7] = assay: Test B flooded paddy test; type: in vivo, Oryza sativa; details: 1000 g ai/ha, visual rating, scale 0 to 100 (0 no effect, 100 complete control), 13 to 15 days
In short: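 Greenhouse test; postemergence application to plants at 1–4 leaves (2–18 cm); paddy species at 2 leaves; evaluated visually vs controls at 13–15 days; scale 0–100 (100 = complete control).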

wheat = assay: Test B postemergence herbicide test; type: in vivo, Triticum aestivum; parameters: key to Wheat plant response rating: 0 = no effect, 100 = complete control; details: scale 0 (no effect) to 100 (complete control)
In short: as §4

giant foxtail [8] = assay: Test A pre-/postemergence herbicide test; type: in vivo, Setaria faberi
In short: as §2

barnyardgrass [9] = assay: Test B flooded paddy test; type: in vivo, Echinochloa crus-galli; details: 1000 g ai/ha, visual rating, scale 0 to 100 (0 no effect, 100 complete control), 13 to 15 days
In short: as §3

barnyardgrass [10] = assay: Test A pre-/postemergence herbicide test; type: in vivo, Echinochloa crus-galli
In short: as §2

large crabgrass [11] = assay: Test B pre-/postemergence herbicide test; type: in vivo, Digitaria sanguinalis
In short: as §1

[12] = system: small flower umbrella sedge; assay: Test B flooded paddy test; type: in vivo, Cyperus difformis; details: 1000 g ai/ha, visual rating, scale 0 to 100 (0 no effect, 100 complete control), 13 to 15 days
In short: as §3

Surinam grass = assay: Test B pre-/postemergence herbicide test; type: in vivo, Urochloa decumbens
In short: as §1

pigweed = assay: Test B pre-/postemergence herbicide test; type: in vivo, Amaranthus retroflexus
In short: as §1

barnyardgrass [13] = assay: Test B pre-/postemergence herbicide test; type: in vivo, Echinochloa crus-galli
In short: as §5

ducksalad = assay: Test B flooded paddy test; type: in vivo, Heteranthera limosa; details: 1000 g ai/ha, visual rating, scale 0 to 100 (0 no effect, 100 complete control), 13 to 15 days
In short: as §3

rice [14] = assay: Test B pre-/postemergence herbicide test; type: in vivo, Oryza sativa; details: preemergence
In short: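 Species tested were Echinochloa crus-galli, Ipomoea coccinea, Xanthium strumarium and Oryza sativa, treated both before emergence and at the 1- to 4-leaf stage; rice and barnyardgrass were also tested under flooding at 2 leaves. Greenhouse incubation lasted 13–15 days before visual 0–100 scoring.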

[15] = 500 g ai/ha, visual rating 0-100, 0 no effect, 100 complete control, preemergence
[16] = Postemergence, 500 g ai/ha, visual rating after 13 to 15 days, scale 0 (no effect) to 100 (complete control)
[17] = postemergence, 125 g ai/ha, visual rating, scale 0 (no effect) to 100 (complete control)
[18] = preemergence, 125 g ai/ha, 0 to 100 scale, 0 is no effect, 100 is complete control
[19] = Postemergence, 500 g ai/ha, 0 to 100 scale, 0 no effect, 100 complete control
[20] = Postemergence, 2000 g ai/ha, 0 to 100 scale, 0 no effect, 100 complete control
[21] = Preemergence, 500 g ai/ha, visual rating, 0 to 100 scale (0 no effect, 100 complete control)
[22] = Preemergence, 2000 g ai/ha, 0 to 100 scale, 0 no effect, 100 complete control
[23] = Postemergence, 500 g ai/ha, visual rating after 13 to 15 days
[24] = postemergence, 125 g ai/ha, visual rating

Structure (SMILES): CCn1nc(C(C)(C)C)cc1C(=O)Nc1cccc(C(=O)OCC2CC2)c1C [Compound 93]
- Plant response rating, Foxtail, Giant (giant foxtail [1]; [15]): 30
- Plant response rating, Foxtail, Giant (giant foxtail [1]; [16]): 10
- Foxtail, Giant plant response rating (giant foxtail [1]; [17]): 10
- Plant response rating, Foxtail, Giant (giant foxtail [1]; [18]): 10
- Velvetleaf plant response rating (velvetleaf [2]; [19]): 10
- Plant response rating, Velvetleaf (velvetleaf [2]; [20]): 15
- Velvetleaf plant response rating (velvetleaf [2]; [21]): 10
- Velvetleaf plant response rating (velvetleaf [2]; Preemergence, 2000 g ai/ha, visual rating, 0 to 100 scale (0 no effect, 100 complete control)): 25
- Pigweed plant response rating (redroot pigweed; [19]): 20
- Plant response rating, Pigweed (redroot pigweed; [20]): 30
- Pigweed plant response rating (redroot pigweed; [21]): 40
- Pigweed plant response rating (redroot pigweed; [22]): 70
- Plant response rating, Velvetleaf (velvetleaf [3]; [15]): 10
- Plant response rating, Velvetleaf (velvetleaf [3]; [16]): 10
- Velvetleaf plant response rating (velvetleaf [3]; [17]): 10
- Plant response rating, Velvetleaf (velvetleaf [3]; [18]): 0
- Crabgrass, Large plant response rating (large crabgrass [4]; [19]): 10
- Plant response rating, Crabgrass, Large (large crabgrass [4]; [20]): 15
- Crabgrass, Large plant response rating (large crabgrass [4]; [21]): 35
- Crabgrass, Large plant response rating (large crabgrass [4]; [22]): 70
- Plant response rating, Blackgrass (blackgrass; [23]): 10
- Blackgrass plant response rating (blackgrass; [24]): 10
- Plant response rating, Oat, Wild (wild oat; [23]): 10
- Oat, Wild plant response rating (wild oat; [24]): 10
- Morningglory plant response rating (morningglory [5]; [19]): 5
- Plant response rating, Morningglory (morningglory [5]; [20]): 10
- Morningglory plant response rating (morningglory [5]; [21]): 5
- Morningglory plant response rating (morningglory [5]; [22]): 20
- Plant response rating, Cocklebur (cocklebur; [15]): 0
- Plant response rating, Cocklebur (cocklebur; [16]): 50
- Cocklebur plant response rating (cocklebur; [17]): 50
- Plant response rating, Cocklebur (cocklebur; [18]): 0
- Plant response rating, Morningglory (morningglory [6]; [15]): 10
- Plant response rating, Morningglory (morningglory [6]; [16]): 40
- Morningglory plant response rating (morningglory [6]; [17]): 10
- Plant response rating, Morningglory (morningglory [6]; [18]): 0
- Plant response rating, Corn (corn; [15]): 10
- Plant response rating, Corn (corn; [16]): 20
- Corn plant response rating (corn; [17]): 10
- Plant response rating, Corn (corn; [18]): 10
- Plant response rating, Lambsquarters (lambsquarters; [15]): 70
- Plant response rating, Lambsquarters (lambsquarters; [16]): 90
- Lambsquarters plant response rating (lambsquarters; [17]): 60
- Plant response rating, Lambsquarters (lambsquarters; [18]): 0
- Rice plant response rating (rice [7]): 20
- Plant response rating, Wheat (wheat; [23]): 10
- Wheat plant response rating (wheat; [24]): 10
- Foxtail, Giant plant response rating (giant foxtail [8]; [19]): 10
- Plant response rating, Foxtail, Giant (giant foxtail [8]; [20]): 10
- Foxtail, Giant plant response rating (giant foxtail [8]; [21]): 35
- Foxtail, Giant plant response rating (giant foxtail [8]; [22]): 60
- Barnyardgrass plant response rating (barnyardgrass [9]): 0
- Barnyardgrass plant response rating (barnyardgrass [10]; [19]): 20
- Plant response rating, Barnyardgrass (barnyardgrass [10]; [20]): 25
- Barnyardgrass plant response rating (barnyardgrass [10]; [21]): 25
- Barnyardgrass plant response rating (barnyardgrass [10]; [22]): 40
- Plant response rating, Crabgrass, Large (large crabgrass [11]; [15]): 20
- Plant response rating, Crabgrass, Large (large crabgrass [11]; [16]): 10
- Crabgrass, Large plant response rating (large crabgrass [11]; [17]): 10
- Plant response rating, Crabgrass, Large (large crabgrass [11]; [18]): 10
- Sedge, Umbrella plant response rating [12]: 70
- Plant response rating, Surinam Grass (Surinam grass; [15]): 0
- Plant response rating, Surinam Grass (Surinam grass; [16]): 10
- Surinam Grass plant response rating (Surinam grass; [17]): 10
- Plant response rating, Surinam Grass (Surinam grass; [18]): 0
- Plant response rating, Pigweed (pigweed; [15]): 70
- Plant response rating, Pigweed (pigweed; [16]): 30
- Pigweed plant response rating (pigweed; [17]): 10
- Plant response rating, Pigweed (pigweed; [18]): 0
- Plant response rating, Barnyardgrass (barnyardgrass [13]; [15]): 20
- Plant response rating, Barnyardgrass (barnyardgrass [13]; [16]): 10
- Barnyardgrass plant response rating (barnyardgrass [13]; [17]): 10
- Plant response rating, Barnyardgrass (barnyardgrass [13]; [18]): 0
- Ducksalad plant response rating (ducksalad): 10
- Plant response rating, Rice (rice [14]; 500 g ai/ha, visual rating 0-100, 0 no effect, 100 complete control): 0
- Plant response rating, Rice (rice [14]; 125 g ai/ha, 0 to 100 scale, 0 is no effect, 100 is complete control): 0
